Here are results for 1 molecule from patent EP0786471A1, “Arthrichitin, a process for its production and its use” (HOECHST AKTIENGESELLSCHAFT, priority 1996, dated 1997).

In one data set the test system is Septoria nodorum. As to the kind of experiment: in vivo activity against phytopathogenic fungi.
A further data set deals with Botrytis cinerea. As to the kind of experiment: in vivo activity against phytopathogenic fungi.
A further data set concerns Phytophthora infestans. The note with it: in vivo.
The next data set relates to Erysiphe graminis. Put plainly: in vivo activity against phytopathogenic fungi.
The subject of data set [1] is Neurospora crassa strain SGF 18. As to the kind of experiment: modified screening method of detecting cell-wall active compounds. In kind it is cell-based. How it is done:
Fermentation carried out for about 90 hours under submerged condition in shake flasks in order to achieve the maximum activity is particularly preferred. The progress of fermentation and the formation of Arthrichitin of the present invention can be detected by the modified screening method of detecting the cell-wall active compounds [J. Antibiotics, 39(11), 1620-1622, 1986] using the Neurospora crassa strain SGF 18.
The production of Arthrichitin was monitored by using the modified screening method of detecting cell-wall active compounds [J. Antibiot., 39 (11), 1620-22, 1986] using the Neurospora crassa strain SGF 18 and growing it in a medium containing the following nutrients : soluble starch 1.5%; Yeast extract 0.4%; K2HPO4 0.1 %; MgSO4.7H2O 0.05%; D-Sorbitol 7.5% (Osmotic stabilizer); L-Sorbose 2.5% (Glucan synthesis inhibitor) and agar 1.5%.

Data set [2] is described as follows: solubility (physico-chemical properties). In kind it is physicochemical. The source says:
The physico-chemical properties of Arthrichitin are as follows : Appearance : Colorless solid Solubility : Soluble in methanol and dimethylsulfoxide; insoluble in petroleum ether, chloroform, ethylacetate and water. Molecular weight : 642 (FAB MS) (Matrix : 3-nitrobenzyl alcohol) Molecular formula : C33H46N4O9 (calculated : […]; [observed : m/z 643.3341 (M + H)^+ (HR FAB-MS; matrix : MeOH/NBA; internal reference : polyethylene glycol 600); calculated for C33H47N4O9 : 643.3345] Melting point : 245°C [α]D : + 24.12°C (c 0.475, MeOH) HPLC retention time : 5.4 minutes [4 x (30 + 100) mm 10µ ODS ®Hypersil column; mobile phase : 35% acetonitrile in 0.02 M aqueous sodium phosphate buffer, pH 7.0; flow rate : 1 ml/min.; UV detection : 220 nm] UV λmax (MeOH) : 247, 266, 310 nm; no shift with acid and alkali IR (KBr) : Figure 1 ^1H NMR (300 MHz, DMSO-d6) : Figure 2 ^13C NMR (75 MHz, DMSO-d6) : Figure 3

Another data set deals with Plasmopara viticola. As to the kind of experiment: in vivo activity against phytopathogenic fungi.
For data set [3], the system named is Pseudocercosporella herpotrichoides. Put plainly: in vivo activity against phytopathogenic fungi.
The test system of the next data set is Pyricularia oryzae. Particulars: in vivo.

In the case of `CCCCCCCCC(C)C1OC(=O)C(CO)NC(=O)C(C(=O)c2c[nH]c3ccccc23)NC(=O)C(CCC(=O)O)NC(=O)C1C` (centres unmarked) [Arthrichitin], the “activity against Septoria nodorum” value with Septoria nodorum is “very good activity”. In addition, the “activity against Botrytis cinerea” value in the data set on Botrytis cinerea is reported as “very good activity”. The “activity against Phytophthora infestans” value in the data set on Phytophthora infestans was “very good activity”. In addition, in the data set on Erysiphe graminis, the “activity against Erysiphe graminis” value is on record as “very good activity”. Moreover, in [1], the “activity as cell wall inhibiting compound” value is listed as “activity as cell wall inhibiting compound”. Moreover, the Solubility result in data set [2] (chloroform) was “insoluble”; in data set [2] (dimethylsulfoxide), “Soluble”; in data set [2] (ethylacetate) it was “insoluble”; in [2] (methanol), “Soluble”; in data set [2] (petroleum ether), “insoluble”; in data set [2] (water), “insoluble”. Further, in the data set on Plasmopara viticola, the “activity against Plasmopara viticola” value is on record as “very good activity”. In addition, the “activity against Pseudocercosporella herpotrichoides” value in data set [3] is “very good activity”. For the same molecule, the “activity against Pyricularia oryzae” value in the data set on Pyricularia oryzae is listed as “very good activity”.
